Measured values from patent US20180141913A1 (EISAI R & D MANAGEMENT CO., LTD., priority 2016, published 2018).
Where two headings read alike, the source gives them in different places.

What was measured:
[1] = test system: MCF7-WT cells (MCF7 ER-alpha wildtype); test: In vitro proliferation (viability) assay, MCF7-WT cells; assay type: cell-based; details: Homo sapiens
Experimental: (§1) MCF7 BUS cells (Coser, et al., (2003) PNAS 100(24): 13994-13999) were maintained in Dulbecco's Modified Eagle Medium supplemented with 10% FBS, 4 mM L-glutamine and 1× non-essential amino acids. Lenti-X 293T cells (Clontech, Cat #632180) were routinely cultured in Dulbecco's Modified Eagle Medium supplemented with 10% FBS.
(§2) The QuikChange II XL Site-Directed Mutagenesis Kit (Agilent Technologies, Cat #200523) was used to generate Y537S, Y537C, Y537N and D538G mutations within the ERα exon 8. Wild-type ESR1 cDNA (GeneCopoeia Inc., Cat# GC-A0322, accession no. NM 000125) was used as a template with the following mutagenesis primers (where the underlined nucleotides represent site mutations); Y537S: F-AAGAACGTGGTGCCCCTCTCTGACCTGCTGCTGGAGATG (SEQ ID NO: 1), R-CATCTCCAGCAGCAGGTCAGAGAGGGGCACCACGTTCTT (SEQ ID NO: 2); Y537N: F-AAGAACGTGGTGCCCCTCAATGACCTGCTGCTGGAGATG (SEQ ID NO: 3), R-CATCTCCAGCAGCAGGTCATTGAGGGGCACCACGTTCTT (SEQ ID NO: 4); Y537C: F-AAGAACGTGGTGCCCCTCTGTGACCTGCTGCTGGAGATG (SEQ ID NO: 5), R-CATCTCCAGCAGCAGGTCACAGAGGGGCACCACGTTCTT (SEQ ID NO: 6); D538G: F-AACGTGGTGCCCCTCTATGGCCTGCTGCTGGAGATGCTG (SEQ ID NO: 7), R-CAGCATCTCCAGCAGCAGGCCATAGAGGGGCACCACGTT (SEQ ID NO: 8). WT and mutant ESR1 cDNAs were cloned into the designation lentiviral vector pLenti6.3/V5-Dest (Invitrogen, Cat #V533-06). To make lentivirus, DNAs (WT and mutant ESR1) were co-transfected with packaging plasmids into Lenti-X 293T cells using TransIT (Mirus, Cat #MIR 2700). 48 h post-transfection, virus containing media was filtered and added to MCF7 cells in the presence of 8 µg/ml polybrene overnight. Two days following infection, cells were placed under selection with 10 µg/ml blasticidin for 2 weeks for stable expression.
(§3) MCF7-WT and -Y537S cells were seeded at 1500 cells/well in black-walled 96-well plates (assay plates, Costar, Cat #3904). In parallel, cells were also seeded in a separate 96-well plate (8 wells/cell line, control plate) for which a CTG (CellTiter-Glo® Luminescent Viability Assay, Promega, Cat #G7572) was measured the following day (day 0 reading). The day 0 reading was used for the GI50 calculation at the termination of the experiment. The day following seeding, compounds were added to assay plates. Briefly, a 1:4 serial dilution was prepared in DMSO at 200× final concentration for a total of 10 concentrations (9 dilutions containing compound and one is DMSO only). Serially diluted compounds were pipetted into medium to prepare a compound-medium mix at 10× final concentration. 10 μl of compound-medium mix was added to MCF7-WT and -Y537S cells at 3 wells/concentration (triplicate for each concentration). On day 3, media/compound was removed and replaced with fresh media/compound as described above. On day 6, CTG was measured and compared to day 0 readings from control plate to assess GI50.

[2] = test system: MCF7-Y537S cells (MCF7 ER-alpha Y537S mutant); test: In vitro proliferation (viability) assay, MCF7-Y537S cells; assay type: cell-based; details: Homo sapiens
Experimental: as §1, §2, §3

[3] = MCF7, CellTiter-Glo, day 6 vs day 0, average ± standard deviation, free base and/or salt forms, read-out: MCF7 WT GI50
[4] = MCF7, CellTiter-Glo, day 6 vs day 0, average ± standard deviation, free base and/or salt forms, read-out: MCF7 Y537S GI50

| SMILES | GI50 [1, 3] | GI50 [2, 4] | GI50 ([1]; MCF7, read-out: MCF7 WT GI50 (nM)) | GI50 ([2]; MCF7, read-out: MCF7 Y537S GI50 (nM)) |
| --- | --- | --- | --- | --- |
| CNC(=O)/C=C/CNCCOc1ccc(/C(=C/CC(F)(F)F)c2ccc3[nH]nc(F)c3c2)nn1 [Compound 69, (E)-N-methyl-4-((2-((6-((E)-4,4,4-trifluoro-1-(3-fluoro-1H-indazol-5-yl)but-1-en-1-yl)pyridazin-3-yl)oxy)ethyl)amino)but-2-enamide] | 8080 nM | 9400 nM | – | – |
| CNC(=O)/C=C/CNCCOc1ccc(/C(=C(/CCCl)c2ccccc2)c2ccc3[nH]nc(F)c3c2)cc1 [Compound 66, (E)-4-((2-(4-((E)-4-chloro-1-(3-fluoro-1H-indazol-5-yl)-2-phenylbut-1-en-1-yl)phenoxy)ethyl)amino)-N-methylbut-2-enamide] | 437 ± 55.2 nM | > 10000 nM | – | – |
| CNC(=O)/C=C/CNCCOc1cnc(/C(=C(/CC(F)(F)F)c2ccccc2)c2ccc3[nH]nc(F)c3c2)cn1 [Compound 74, (E)-N-methyl-4-((2-((5-((Z)-4,4,4,4-trifluoro-1-(3-fluoro-1H-indazol-5-yl)-2-phenylbut-1-en-1-yl)pyrazin-2-yl)oxy)ethyl)amino)but-2-enamide] | 2.47 ± 0.18 nM | 29.4 ± 11.5 nM | – | – |
| CNC(=O)CCCCNCCOc1ccc(/C(=C(/CC(F)(F)F)c2ccccc2)c2ccc3[nH]nc(F)c3c2)cn1 [Compound 8, (Z)-N-methyl-5-((2-((5-(4,4,4-trifluoro-1-(3-fluoro-1H-indazol-5-yl)-2-phenylbut-1-en-1-yl)pyridin-2-yl)oxy)ethyl)amino)pentanamide] | 0.7 ± 0.27 nM | 14.7 ± 0.55 nM | – | – |
| CC/C(=C(/c1ccc(OCCNC/C=C/C(=O)NC)nc1)c1ccc2[nH]nc(C)c2c1)c1ccccc1 [Compound 49, (E)-N-methyl-4-((2-((5-((Z)-1-(3-methyl-1H-indazol-5-yl)-2-phenylbut-1-en-1-yl)pyridin-2-yl)oxy)ethyl)amino)but-2-enamide] | 173 ± 51.7 nM | 2420 nM | – | – |
| CN(C)C(=O)CCCNCCOc1ccc(/C(=C(/CC(F)(F)F)c2ccccc2)c2ccc3[nH]nc(F)c3c2)cc1 [Compound 1, (E)-N,N-dimethyl-4-((2-(4-(4,4,4-trifluoro-1-(3-fluoro-1H-indazol-5-yl)-2-phenylbut-1-en-1-yl)phenoxy)ethyl)amino)butanamide] | 0.36 ± 0.16 nM | 3.79 ± 1.92 nM | – | – |
| CNC(=O)/C=C/CNCCOc1ccc(/C(=C(/CC(F)(F)F)c2ccccc2)c2ccc3[nH]nc(F)c3c2)nn1 [Compound 54, (E)-N-methyl-4-((2-((6-((Z)-4,4,4-trifluoro-1-(3-fluoro-1H-indazol-5-yl)-2-phenylbut-1-en-1-yl)pyridazin-3-yl)oxy)ethyl)amino)but-2-enamide] | 892 ± 528 nM | 7690 nM | – | – |
| CNC(=O)/C=C/CNCCOc1ncc(/C(=C(/CC(F)(F)F)c2ccccc2)c2ccc3[nH]nc(F)c3c2)cn1 [Compound 45, (E)-N-methyl-4-((2-((5-((Z)-4,4,4,4-trifluoro-1-(3-fluoro-1H-indazol-5-yl)-2-phenylbut-1-en-1-yl)pyrimidin-2-yl)oxy)ethyl)amino)but-2-enamide] | 23.2 ± 9.42 nM | 71 ± 8.63 nM | – | – |
| CNC(=O)/C=C/CNCCOc1ccc(/C(=C(\c2ccccc2)C(C)C)c2ccc3[nH]nc(F)c3c2)cc1 [Compound 68, (E)-4-((2-(4-((E)-1-(3-fluoro-1H-indazol-5-yl)-3-methyl-2-phenylbut-1-en-1-yl)phenoxy)ethyl)amino)-N-methylbut-2-enamide] | 22 ± 2.66 nM | 101 ± 53 nM | – | – |
| O=C1CCCN1CCOc1ccc(/C(=C(/CC(F)(F)F)c2ccccc2)c2ccc3[nH]nc(F)c3c2)cn1 [Compound 12, (Z)-1-(2-((5-(4,4,4-trifluoro-1-(3-fluoro-1H-indazol-5-yl)-2-phenylbut-1-en-1-yl)pyridin-2-yl)oxy)ethyl)pyrrolidin-2-one] | 1.45 nM | 24 nM | – | – |
| O=C(CCCNCCOc1ccc(/C(=C(/CC(F)(F)F)c2ccccc2)c2ccc3[nH]nc(F)c3c2)cn1)N1CCCC1 [Compound 43] | – | – | 0.15 nM | 3.21 nM |
